Where a name gives a salt, the structure may show the parent alone.
Assays:
[1] = test system: NO, RAW 264.7 cells; assay: NO reduction in LPS-stimulated RAW 264.7 macrophages; format: cell-based, mouse; settings: Mus musculus, RAW264.7, 24 h, read-out: Reduction in NO levels, RAW Macrophages % peak reduction
[2] = test system: ChE (AChE, BuChE) in plasma, muscle, spleen, brain
Method: E. Acetylcholinesterase (AChE) and Butylcholinesterase (BuChE) Inhibition Ex Vivo
Compounds of the invention or saline were administrated by intraperitoneal (ip) injection or gavage to groups of 6-7 male ICR or Balb C mice (5-6 weeks of age). The mice were sacrificed 15, 30, 60 or 120 min after drug administration and the brain (minus cerebellum), spleen, and muscle were rapidly removed, weighed and put on ice. Blood was also collected in heparinised tubes, centrifuged at 14000 rpm at room temperature for 4 mM to provide plasma. Phosphate buffer pH 7 was added to each tissue to produce concentrations of 1 mg/mL for brain and spleen and 8 mg/mL for muscle. The tissues were homogenised in cold phosphate buffer pH 7 containing 0.1% Triton and centrifuged at 14000 rpm. Aliquots of plasma and the supernatant of all tissues were incubated with AcTh or BuTh and DTNB in phosphate buffer pH 7 and the rate of development of the yellow colour was measured as described above. Enzyme activity was measured for each time and drug concentration and percent inhibition of the AChE or BuChE activity was calculated by comparison with that of control mice injected with saline. Results are represented as p moles acetylthiocholine or butythiocholine hydrolysed/min/gm tissue.

[3] = test system: NO, BV2 mouse microglial cells; assay: NO reduction in LPS-stimulated BV2 microglia; format: cell-based; settings: for Reduction in NO levels by at >20%, BV2 Microglia range: concentration range, None = no reduction up till 100 nM
Method: The BV2 mouse microglial cells were created by infecting primary mouse microglia with v-raf/v-myc oncogen-carrying retrovirus and donated by Dr. Sigal Fleisher—Berkovich (Ben-Gurion University of the Negev). The cells were cultured in RPMI 1640 containing 0.4 mM L-Glutamine, 10% FCS, 100 units/ml penicillin, 100 μg/ml streptomycin and maintained in a humidified incubator at 37° C. with 5% CO2. For measurement of the effect of compounds on the release of NO the cells were seeded in a density of 80,000 cells/ml and confluence of about 60%, and incubated with test compounds (in the absence of FCS) for […] All the medium was removed and fresh medium containing FCS and LPS (10 μg/ml) added and the cells maintained at 37° C. for 24 h. The release of NO into the medium was determined by measurement of nitrite levels using Griess reagent reaction. For measurement of protein levels of cytokines cells were seeded in a density of 80,000 and incubated with test compounds (in the absence of FCS) and then with LPS as described above. The medium was centrifuged and supernatants collected after 6 h for TNF-α (Biolegend) and after 20 h for IL-6 (Biolegend).

[4] = test system: cytokine levels in spleen and brain; assay: Anti-inflammatory activity in LPS-injected mice, cytokine protein levels; format: in vivo, mouse; settings: 8 h after ip LPS 10 mg/kg, two doses
Method: G. Evaluation of Anti-Inflammatory Activity in Mice
For measurement of cytokine protein levels, mice were treated with saline or LPS as described above and sacrificed 4 h or 8 h after drug administration, the spleen and rapidly brain removed. The brain was separated into fore, mid and hind sections (minus cerebellum) and frozen in liquid nitrogen and stored at −80° C. until use. […] The supernatant was rapidly frozen in liquid nitrogen and stored until use at −80° C. Cytokines were detected by using Elisa kits (Biolegend) and protein determination performed with Bradford reagent (Bio-RAD, 500-0006).

[5] = test system: DNBS-induced colon inflammation; assay: DNBS-induced colitis in rats (model of Crohn's disease); format: in vivo, rat; settings: rectal 1 mg/kg (2.5 μmoles/kg) prior to and after DNBS
Method: H. Measurement of Effect of Compounds of the Invention in a Model of Crohn's Disease in Rats
Inflammation in the colon was induced in male rats of the Sabra strain (250-300 g) by intra-colonic administration of 1 mL of dinitrobenzensulfonic acid (DNBS) (35 mg/mL in ethanol 25% v/v) under isoflurane anaesthesia. The novel drugs (827B or 680D) or saline was given rectally 1 h prior to DNBS at a dose of 1 mg/kg (2.5 μmoles/kg), and then twice daily at the same dose 12, 24, 36, 48, 60 and 72 h later. A group of control rats received saline rectally instead of DNBS and were pre-treated with saline instead of drug. The rats were anaesthetized by ip injection of a mixture of xylazine 3 mg, ketamine 85 mg, 1 mL/kg. The colon was exposed through a longitudinal abdominal incision. The area of ulceration was estimated. Segments of 10 cm of the colon were removed, cut open and rinsed with ice-cold saline. After cleaning with cold saline (0.9%) the wet weight of the colon was measured. Pieces of colon were analysed for activity of myeloperoxidase (MPO), a marker of neutrophil granulocyte infiltration into the inflamed colon tissue. One unit of MPO activity was defined as the amount of enzyme present that produced a change in absorbance of […] at 25° C. Results were quantified as U/g protein.

[6] = target: T1, BuChE (UniProt P81908); format: biochemical, human or equine serum; settings: read-out: IC50 BuChE 120 min; Table 3; 120 min incubation
T1 construct: 120 min incubation; BuChE IC50
How it was run: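 Enzyme incubated at 37° C with 6-10 compound concentrations, sampled at 15, 30, 60 and 120 min; residual activity read kinetically on a microplate reader. Percent inhibition relative to no-drug enzyme; BuChE run likewise with 0.075M butylthiocholine iodide as substrate.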

[7] = Radical scavenging, Sin1; format: biochemical; settings: mean ± SD, three independent experiments
[8] = Radical scavenging, glucose oxidase/luminol luminescence; format: biochemical; settings: concentration reducing luminescence/radical by 50%; mean ± SD, three independent experiments
How it was run: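 Glucose oxidase, luminol, sodium selenite and Co2+ in HBSS generate H2O2-driven oxidant luminescence. Compounds were added at several concentrations. The value is the concentration reducing luminescence by 50%.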

[9] = Fall in body temperature in rats; format: in vivo, rat; settings: ip injection of two doses
Method: F. Temperature Measurements in Rats
Monitoring body temperature at different times after drug administration enables one to assess in vivo both the extent of drug effect and its duration in the same group of rats. Test compounds or saline were administrated by ip injection or by gavage to female Wistar rats aged 3-4 months. Body temperature was measured rectally by means of a thermocouple probe, before and every 30 min after drug administration until this returned to pre-injection values. The change in body temperature induced by the drug was computed for each dose at each time point in comparison with the temperature prior to drug injection.

[10] = test system: TNF-α, RAW 264.7 cells; assay: TNF-α reduction in LPS-stimulated RAW 264.7 macrophages; format: cell-based, mouse; settings: Mus musculus, RAW264.7, 6 h, read-out: Reduction in TNF-α levels, RAW Macrophages % peak reduction
[11] = test system: TNF-α, BV2 mouse microglial cells; assay: TNF-α reduction in LPS-stimulated BV2 microglia; format: cell-based
[12] = test system: primary neurones in culture; settings: Chyan et al., J. Biol. Chem. 1999; cited from earlier work
[13] = test system: conversion of MCI to AD; settings: chronic treatment; cited from earlier work

SMILES: CCN(C)C(=O)Oc1ccc2c(c1)NCC2CCC(=O)OC.CS(=O)(=O)O (stereo not shown) [AN-680D, Methyl 3-(6-((ethyl(methyl)carbamoyl)oxy)indolin-3-yl)propanoate methanesulfonate]
- Emax [1]: 47.8 ± 1.8%
- inhibition of ChE in mouse brain ([2]; 100 μmoles/kg): no significant inhibition
- Reduction in NO levels, BV2 Microglia % peak reduction [3]: 37.1 ± 5.3%
- Reduction in NO levels by at >20%, BV2 Microglia range [3]: 10^−3-100 nM
- reduction in cytokine levels in cerebral cortex (FIG. 6B) [4]: reduction
- reduction in cytokine levels in spleen (FIG. 6A) [4]: reduction
- reduced MPO activity [5]: 80%
- reduced colon weight [5]: 30%
- reduced the area of colonic ulceration [5]: 95%

SMILES: CCN(C)C(=O)Oc1cccc2c1CCN2 [AN-854, Indolin-4-yl ethyl(methyl)carbamate hydrochloride]
- IC50 [6]: 700 nM
- IC50 [7]: 570 ± 10 nM
- Emax [1]: 45.2 ± 1.4%
- IC50 [8]: 1380 ± 100 nM
- inhibited ChE in the mouse brain ([2]; 50 μmoles/kg): 30%
- ChE inhibition in plasma, muscle, and spleen ([2]; after ip and or oral administration in mice): inhibited ChE
- fall in body temperature in rats (FIG. 4) [9]: fall in body temperature
- Emax [10]: 41.1 ± 3.8%
- Reduction in TNF-α levels, BV2 Microglia % peak reduction [11]: 8.4 ± 1.7%
- Reduction in TNF-α levels, BV2 Microglia range ([11]; concentration range, None = no reduction up till 100 nM): 100 nM
- Reduction in NO levels by at >20%, BV2 Microglia range [3]: None

SMILES: O=C(O)CCc1c[nH]c2ccccc12 [IPA, 3-indole-propionic acid]
- protection of primary neurones against oxidative damage induced by beta amyloid [12]: protects primary neurones in culture against oxidative damage induced by beta amyloid

SMILES: COc1cc2c(cc1OC)C(=O)C(CC1CCN(Cc3ccccc3)CC1)C2 (stereo not shown) [donepezil]
- proportion of MCI patients converting to AD [13]: did not reduce the proportion converting to AD

Source: US9499484B2, “Indole, indoline derivatives, compositions comprising them and uses thereof” (priority 2012, dated 2016)
